This is an account of results in US11731943B2, “Therapeutic compounds, compositions and methods of use thereof” (priority 2016, dated 2023).

Usually Ki stands for the equilibrium dissociation constant of an inhibitor or competing ligand from its target. For orientation: IC50 means the midpoint of a concentration-inhibition curve.

SMILES strings stand for the structures. Like-named read-outs stand apart in the source and are kept apart here.

The target in assay [1] is isolated recombinant JAK2 kinase domain (Homo sapiens (Human), UniProt O60674). Put plainly: JAK2 enzyme assay (Caliper LabChip, Ki). The class given is biochemical. The method in brief:
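Caliper LabChip readout of phosphorylated product as a fraction of total substrate, a fluorescently N-terminally labelled JAK3-derived peptide. Isolated human JAK kinase domains were incubated 30 min at 22 °C before EDTA quench (50 mM final).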

Assay [2] concerns the target isolated recombinant JAK1 kinase domain (Homo sapiens (Human), UniProt P23458). The experiment in a line: JAK1 enzyme assay (Caliper LabChip, Ki). The settings on record: read-out: JAK1 Ki. The class given is biochemical. The method in brief:
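Ki derived via Morrison tight-binding model, ATP-competitive correction applied. Read-out: product/total ratio of a 5-carboxyfluorescein-tagged JAK3 peptide separated on Caliper LabChip after phosphorylation by isolated human JAK1 kinase domain (22 °C, 30 min; EDTA quench, 50 mM final).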

The test system of assay [3] is JAK1-dependent STAT6 phosphorylation downstream of IL-13 stimulation in BEAS-2B human bronchial epithelial cells. Put plainly: JAK1 pathway assay in BEAS-2B cells (IL-13-pSTAT6, MSD). Type of assay: cell-based. The settings on record: BEAS-2B cells, IL-13 stimulation, read-out: IL-13 p-STAT6 BEAS-2B IC50.

Chain of isolated recombinant JAK1 kinase domain (P23458 875-1153): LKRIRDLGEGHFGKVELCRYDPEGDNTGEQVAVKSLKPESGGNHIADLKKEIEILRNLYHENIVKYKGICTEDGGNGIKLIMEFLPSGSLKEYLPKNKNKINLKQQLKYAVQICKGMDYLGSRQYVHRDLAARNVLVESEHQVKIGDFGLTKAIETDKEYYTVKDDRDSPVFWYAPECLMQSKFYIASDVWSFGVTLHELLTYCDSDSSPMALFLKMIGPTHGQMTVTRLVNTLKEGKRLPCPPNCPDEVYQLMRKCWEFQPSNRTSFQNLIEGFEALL
Chain of isolated recombinant JAK2 kinase domain (O60674 849-1124): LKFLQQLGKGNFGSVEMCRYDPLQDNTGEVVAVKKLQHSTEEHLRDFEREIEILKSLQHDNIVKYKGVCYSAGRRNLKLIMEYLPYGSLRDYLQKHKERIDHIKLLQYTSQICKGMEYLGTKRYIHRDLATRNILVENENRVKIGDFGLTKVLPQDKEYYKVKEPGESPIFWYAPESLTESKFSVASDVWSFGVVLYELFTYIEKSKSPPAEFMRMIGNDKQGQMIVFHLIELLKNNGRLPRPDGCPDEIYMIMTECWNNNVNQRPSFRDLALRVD

As to `N#CCC1(n2cc(C(N)=O)c(NC(=O)C3CC3C#N)n2)CCN(CC2CCC(c3ccccc3)CC2)CC1F` (stereo not drawn) [Example 228, 3-[(2-cyanocyclopropanecarbonyl)amino]-1-[4-(cyanomethyl)-3-fluoro-1-[(4-phenylcyclohexyl)methyl]-4-piperidyl]pyrazole-4-carboxamide], the Ki in assay [1] was 7.7 nM; in assay [2], 1.5 nM. In addition, the IC50 in assay [3] amounted to 77 nM.

In the case of `N#CCC1(n2cc(C(N)=O)c(NC(=O)C3CC3)n2)CCN(Cc2ccc(C3=CCCCC3)cc2)CC1F` (stereo not drawn) [Example 229, 1-[4-(cyanomethyl)-1-[[4-(cyclohexen-1-yl)phenyl]methyl]-3-fluoro-4-piperidyl]-3-(cyclopropanecarbonylamino) pyrazole-4-carboxamide], the Ki in assay [1] amounted to 0.77 nM; in assay [2] it was 0.48 nM. Further, the half-inhibitory concentration (IC50) in assay [3] (Homo sapiens, BEAS-2B) is 25 nM.

In the case of `N#CCC1(n2cc(C(N)=O)c(NC(=O)C3CC3C#N)n2)CCN(CC2CCC(c3ccccc3)CC2)CC1F` (stereo not drawn) [Example 230, 3-[(2-cyanocyclopropanecarbonyl)amino]-1-[4-(cyanomethyl)-3-fluoro-1-[(4-phenylcyclohexyl)methyl]-4-piperidyl]pyrazole-4-carboxamide], the Ki came to 1.8 nM in assay [1] and 0.51 nM in assay [2]. In addition, the concentration for half-maximal inhibition (IC50) in assay [3] was found to be 60 nM.

In the case of `N#CCC1(n2cc(C(N)=O)c(NC(=O)C3CC3C#N)n2)CCN(CC2CCC(c3ccccc3)CC2)CC1F` (stereo not drawn) [Example 231, 3-[(2-cyanocyclopropanecarbonyl)amino]-1-[4-(cyanomethyl)-3-fluoro-1-[(4-phenylcyclohexyl)methyl]-4-piperidyl]pyrazole-4-carboxamide], the figures for the inhibitory constant (Ki) in assay [1] and in assay [2] were 8.3 nM and 0.36 nM, respectively. Also, in assay [3], the half-inhibitory concentration (IC50) amounted to 19 nM.

As for `CCc1ccc(-c2ccc(CN3CCC(CC#N)(n4cc(C(N)=O)c(NC(=O)OC)n4)C(F)C3)cc2)o1` (stereo not drawn) [Example 232, methyl N-[4-carbamoyl-1-[4-(cyanomethyl)-1-[[4-(5-ethyl-2-furyl)phenyl]methyl]-3-fluoro-4-piperidyl]pyrazol-3-yl]carbamate], the Ki in assay [1] was determined as 0.89 nM; in assay [2], 0.32 nM. In assay [3] (Homo sapiens, BEAS-2B), the IC50 was found to be 20 nM.

For the compound `N#CCC1(n2cc(C(N)=O)c(NC(=O)C3CC3)n2)CCN(CC2CCC(c3ccccc3)CC2)CC1F` (stereo not drawn) [Example 233, 1-[4-(cyanomethyl)-3-fluoro-1-[(4-phenylcyclohexyl)methyl]-4-piperidyl]-3-(cyclopropanecarbonylamino) pyrazole-4-carboxamide], the Ki in assay [1] came to 0.45 nM; in assay [2], 0.3 nM. For the same compound, the IC50 in assay [3] (Homo sapiens, BEAS-2B) is 39 nM.

Take `N#CCC1(n2cc(C(N)=O)c(NC(=O)C3CC3)n2)CCN(CC2CCC(c3ccccc3)CC2)CC1F` (stereo not drawn) [Example 234, 1-[4-(cyanomethyl)-3-fluoro-1-[(4-phenylcyclohexyl)methyl]-4-piperidyl]-3-(cyclopropanecarbonylamino) pyrazole-4-carboxamide]: the Ki in assay [1] was determined as 1 nM; in assay [2], 0.27 nM. In assay [3], the IC50 turned out to be 31 nM.

`COC(=O)Nc1nn(C2(CC#N)CCN(CC3CCC(c4ccccc4)CC3)CC2F)cc1C(N)=O` (stereo not drawn) [Example 235, methyl N-[4-carbamoyl-1-[4-(cyanomethyl)-3-fluoro-1-[(4-phenylcyclohexyl)methyl]-4-piperidyl]pyrazol-3-yl]carbamate]: the Ki in assay [1] is 0.67 nM; in assay [2], 0.32 nM. Further, the IC50 in assay [3] (Homo sapiens, BEAS-2B) worked out at 26 nM.

Consider `COC(=O)Nc1nn(C2(CC#N)CCN(CC3CCC(c4ccccc4)CC3)CC2F)cc1C(N)=O` (stereo not drawn) [Example 236, methyl N-[4-carbamoyl-1-[4-(cyanomethyl)-3-fluoro-1-[(4-phenylcyclohexyl)methyl]-4-piperidyl]pyrazol-3-yl]carbamate], for which the inhibition constant (Ki) turned out to be 1.4 nM in assay [1] and 0.21 nM in assay [2]. Moreover, in assay [3], the concentration for half-maximal inhibition (IC50) amounted to 19 nM.

For `COC(=O)Nc1nn(C2(CC#N)CCN(Cc3cc(O)c(-c4ccoc4)cc3F)CC2F)cc1C(N)=O` (stereo not drawn) [Example 237, methyl N-[4-carbamoyl-1-[4-(cyanomethyl)-3-fluoro-1-[[2-fluoro-4-(3-furyl)-5-hydroxy-phenyl]methyl]-4-piperidyl]pyrazol-3-yl]carbamate], the values for the inhibition constant (Ki) in assay [1] and in assay [2] were 0.3 nM and 0.22 nM, respectively. For the same compound, in assay [3] (Homo sapiens, BEAS-2B), the 50% inhibitory concentration (IC50) turned out to be 27 nM.

`COC(=O)Nc1nn(C2(CC#N)CCN(Cc3cc(O)c(-c4ccco4)cc3F)CC2F)cc1C(N)=O` (stereo not drawn) [Example 238, methyl N-[4-carbamoyl-1-[4-(cyanomethyl)-3-fluoro-1-[[2-fluoro-4-(2-furyl)-5-hydroxy-phenyl]methyl]-4-piperidyl]pyrazol-3-yl]carbamate]: the inhibition constant Ki was found to be 0.35 nM in assay [1] and 0.29 nM in assay [2]. In assay [3] (Homo sapiens, BEAS-2B), the 50% inhibitory concentration (IC50) is 18 nM.

Regarding `COC(=O)Nc1nn(C2(CC#N)CCN(Cc3ccc(-c4ccoc4)nc3F)CC2F)cc1C(N)=O` (stereo not drawn) [Example 239, methyl N-[4-carbamoyl-1-[4-(cyanomethyl)-3-fluoro-1-[[2-fluoro-6-(3-furyl)-3-pyridyl]methyl]-4-piperidyl]pyrazol-3-yl]carbamate], the values for the inhibition constant (Ki) in assay [1] and in assay [2] were 0.89 nM and 0.51 nM, respectively. The half-inhibitory concentration (IC50) in assay [3] (Homo sapiens, BEAS-2B) is 67 nM.

On to `N#CCC1(n2cc(C(N)=O)c(NC(=O)C3CC3C#N)n2)CCN(Cc2cc(O)c(-c3ccccc3)cc2F)CC1F` (stereo not drawn) [Example 240, 3-[(2-cyanocyclopropanecarbonyl)amino]-1-[4-(cyanomethyl)-3-fluoro-1-[(2-fluoro-5-hydroxy-4-phenyl-phenyl)methyl]-4-piperidyl]pyrazole-4-carboxamide], for which the Ki in assay [1] was 0.29 nM; in assay [2], 0.19 nM. Besides, in assay [3] (Homo sapiens, BEAS-2B), the IC50 amounted to 71 nM.

Take `CCn1ccc(-c2ccc(CN3CCC(CC#N)(n4cc(C(N)=O)c(NC(=O)OC)n4)C(F)C3)c(F)c2)n1` (stereo not drawn) [Example 241, methyl N-[4-carbamoyl-1-[4-(cyanomethyl)-1-[[4-(1-ethylpyrazol-3-yl)-2-fluoro-phenyl]methyl]-3-fluoro-4-piperidyl]pyrazol-3-yl]carbamate]: the inhibition constant Ki worked out at 0.51 nM in assay [1] and 0.54 nM in assay [2]. Besides, the half-maximal inhibitory concentration (IC50) in assay [3] (Homo sapiens, BEAS-2B) amounted to 29 nM.

Regarding `CCn1ccc(-c2ccc(CN3CCC(CC#N)(n4cc(C(N)=O)c(NC(=O)C5CC5)n4)C(F)C3)c(F)c2)n1` (stereo not drawn) [Example 242, 1-[4-(cyanomethyl)-1-[[4-(1-ethylpyrazol-3-yl)-2-fluoro-phenyl]methyl]-3-fluoro-4-piperidyl]-3-(cyclopropanecarbonylamino) pyrazole-4-carboxamide], the Ki in assay [1] worked out at 0.51 nM; in assay [2] it was 0.6 nM. Besides, the IC50 in assay [3] (Homo sapiens, BEAS-2B) is 55 nM.

With `COC(=O)Nc1nn(C2(CC#N)CCC(N3CC(F)(c4ccccc4)C3)CC2)cc1C(N)=O` (stereo not drawn) [Example 243, methyl N-[4-carbamoyl-1-[1-(cyanomethyl)-4-(3-fluoro-3-phenyl-azetidin-1-yl)cyclohexyl]pyrazol-3-yl]carbamate], the Ki in assay [1] is 14 nM; in assay [2], 2.7 nM. Also, in assay [3] (Homo sapiens, BEAS-2B), the 50% inhibitory concentration (IC50) worked out at 100 nM.

As for `COC(=O)Nc1nn(C2(CC#N)CCN(Cc3ccc(-c4ccoc4)c(O)c3)CC2F)cc1C(N)=O` (stereo not drawn) [Example 244, methyl N-[4-carbamoyl-1-[4-(cyanomethyl)-3-fluoro-1-[[4-(3-furyl)-3-hydroxy-phenyl]methyl]-4-piperidyl]pyrazol-3-yl]carbamate], the Ki was found to be 0.37 nM in assay [1] and 0.2 nM in assay [2]. Besides, in assay [3] (Homo sapiens, BEAS-2B), the IC50 was found to be 67 nM.
